According to PMC12040169 (PLOS Biology, 2025):

assay: in vitro; conditions: human, hela cells

Compound | viability at 28.5 h, 10 µM
O=C(/C=C/c1ccc(N2N=N2)cc1)/C=C/c1ccc(N2N=N2)cc1 [CBK261638] | 105%

same assay, conditions: human, hela cells, % viability

Compound | viability at 28.5 h, 10 µM
N#Cc1ccc(CN2CCCCC2c2[nH]ncc2C(N)=O)c(Cl)c1 (stereo not drawn) [CBK304261] | 91.4%
O=c1c2c([nH]c3nc(NCc4ccc(OCc5ccccc5)cc4)nn13)CCC2 [CBK268044] | 96.9%
Cc1cc(C(=O)NCc2c(-c3ccccc3)noc2C)n[nH]1 [CBK144076] | 91.4%
CC[n+]1c(C(C)(C)C)csc1NCC1CC1 [CBK011154B] | 106%
O=C(Cn1cc(C(=O)NCc2ccccc2)ccc1=O)Nc1cc(F)ccc1N1CCCC1 [CBK285998] | 97.8%
CC1CC1c1nnc(C2(c3ccc(Br)cc3)CCOCC2)o1 (stereo not drawn) [CBK304712] | 94.1%
COCC1(C(=O)N2CC(=O)N(c3ccc(Cl)cc3)CC2C)CCC1 (stereo not drawn) [CBK306674] | 89.2%
CCOC(=O)CSc1c2cc3c(nc2nc(=O)n1Cc1ccccc1)CC(C)(C)OC3 [CBK018608] | 94.3%
Fc1ccc([C@@H]2CN(Cc3cccnc3)C[C@H]2c2cc[nH]n2)cc1 [CBK283054] | 100%
COc1cccc2cc(C(=O)NCCCN3CCN(C)CC3)oc12 [CBK149788] | 101%
COc1ccc(CN2CCN(Cc3cccnc3)CC2)cc1OC [CBK074409G] | 94.1%
Cc1ccc(Nc2cc(-c3cc4ccccc4o3)ncn2)cc1NS(C)(=O)=O [CBK091148] | 93.6%
O=C(Cc1c[nH]c2ccccc12)N1CCC2(CCCN(C(=O)c3ccc(OC(F)(F)F)cc3)C2)C1 (stereo not drawn) [CBK131579] | 97.8%
O=C(N/N=C/c1c(F)cccc1Cl)c1ccccc1O [CBK261815] | 113%
CCN(Cc1ccncc1)C(CC1CCCCC1)c1ccccc1 (stereo not drawn) [CBK061639T] | 97.3%
O=C(O)CCc1nn2c3ccccc3nc2n(-c2ccccc2)c1=O [CBK267520] | 90.6%
Cc1c(NC(=O)CSc2ccc(Cl)cc2)cccc1-c1nc2ncccc2o1 [CBK268829] | 109%
CCOc1cc(CNCCO)c(Cl)cc1OC [CBK269309C] | 102%
Cc1cc2cccc(NC(=O)NCc3cncn3CC(C)C)c2o1 [CBK306715] | 101%
Cc1ccc(S(=O)(=O)N2CCN(c3nc(NC(C)c4ccccc4)c4ccccc4n3)CC2)cc1 (stereo not drawn) [CBK266448] | 106%
CC(Sc1ccc(S(=O)(=O)N2CCN(C)CC2)cn1)C(=O)Nc1ccc(C(C)(C)C)cc1 (stereo not drawn) [CBK297551] | 106%
COc1cc(C)c(Cl)cc1S(=O)(=O)NCCCN1CCOCC1 [CBK269044] | 97.1%

Compound | viability at 28.5 h, 10 µM
COc1ccc([C@@]23CC[C@@H](NC(=O)Nc4ccc(Cl)c(F)c4)C[C@@H]2N(C(C)C)CC3)cc1OC [CBK056852T] | 99.2%
O=C(CNC(=O)OCc1ccncc1)NCC(CCCN1CCC(c2ccccc2)CC1)(c1ccccc1)c1ccccc1 [CBK024060A] | 112%
CC(C)(C)c1ccc(NC(=O)N(CCN)Cc2c[nH]c(-c3ccccc3)n2)cc1 [CBK046297C] | 64.9%
Cc1c(CN(C)C(=O)c2cccc(NC(=O)C3CCCO3)c2)cnn1C (stereo not drawn) [CBK305416] | 103%
O=C(CN1CC[C@H]2NC(=O)COc3ccccc3CCCC[C@@H]2C1)NCc1ccccn1 [CBK292046] | 96.7%
CCN1C(=O)C2(CC(=O)N(Cc3ccccc3)C2=O)c2cc(Cl)ccc21 (stereo not drawn) [CBK075233] | 99.1%
N#Cc1ccc(-c2cnc(NC(=O)C(F)(F)F)c(-c3ccc(C(=O)N4CCOCC4)cc3)n2)cc1 [CBK093819] | 94.2%
COc1ccc(CNc2cc(-c3cccc(Cl)c3)nc3ccnn23)cc1 [CBK037037] | 95.8%
CCc1nnc(NS(=O)(=O)c2ccc(Nc3ccc([N+](=O)[O-])c4nonc34)cc2)s1 [CBK261442] | 92.3%
O=C(Nc1ccccc1)N[C@H]1CO[C@H]2[C@@H]1OC[C@H]2OC(=O)Nc1ccccc1 [CBK289465] | 89.1%
Cc1cc(COc2nc3ccccc3nc2NCCC2=CCCCC2)no1 [CBK173982] | 115%
COc1ccc(O)c(CN2CCC(N3CCCCC3)CC2)c1 [CBK261849] | 94.9%
COc1ccc(C2(C(=O)NCc3ccc(-c4ccc(C(N)=O)c(C)n4)cc3)CCCC2)cc1 [CBK285647] | 96%
CC(C)(C)c1cc(CC2(NCc3ccco3)COC2)no1 [CBK289642] | 108%
COCCn1cc(CN2CCC(CO)C2)c2ccccc21 (stereo not drawn) [CBK282123] | 99.2%
COc1ccc(-c2cc(C(=O)NCc3cccnc3)c3cc(Br)ccc3n2)cc1 [CBK293958] | 86.1%
CC(Cc1nc(-c2ccnn2C)cs1)n1cc(Cl)cn1 (stereo not drawn) [CBK304152] | 96.6%
O=C(NCc1c(Cl)cccc1Cl)N1CCCCC1CO (stereo not drawn) [CBK156184] | 99.5%
O=C(CCc1nc2ccccc2nc1O)OCc1cccc([N+](=O)[O-])c1 [CBK266804] | 85%
CC(NC(=O)CCc1cc2n(n1)CCNC2)c1cn2ccsc2n1 (stereo not drawn) [CBK306551] | 91.2%
CC(C)NC(=O)Cn1c(=O)n(Cc2cccs2)c2ncccc21 [CBK283900] | 83.6%
CN(C)CC1CCCN(C(=O)C2C3CCCCC32)C1 (stereo not drawn) [CBK282002] | 82.3%

Compound | viability at 28.5 h, 10 µM
O=C(NCCN1CCCCC1)C1CC(=O)N(Cc2ccco2)C1 (stereo not drawn) [CBK304877] | 89.8%
Cc1ccc(C)c(C(=O)C2=C(O)C(=O)N(CCCN3CCOCC3)C2c2ccncc2)c1 (stereo not drawn) [CBK265492] | 103%
CCN(CC)S(=O)(=O)c1ccc(C)c(NS(=O)(=O)c2cc(C(=O)O)n(C)c2)c1 [CBK297782] | 99.5%
C#CCNCCCOc1ccccc1Oc1ccccc1 [CBK017707C] | 94.2%
O=C(C1CCCN(c2ccc3nncn3n2)C1)N1CCOCC1 (stereo not drawn) [CBK287901] | 104%
Fc1ccc(-c2n[nH]c(=S)n2CCCN2CCOCC2)cc1 [CBK267127] | 100%
Cn1c(SCC(=O)n2c3c(c4ccccc42)CCCC3)nnc1-c1ccco1 [CBK267370] | 99.2%
O=C(N1CCCCCC1)N1CCN(S(=O)(=O)N2CCOCC2)CC1 [CBK268681] | 105%
c1ccc(OCCOc2cccnc2N2CCNCC2)cc1 [CBK200000C] | 90.1%
CC(=O)N1CC[C@H]2NC(=O)CNC(=O)C3(CCCC[C@H]2C1)CCN(C(=O)CN1CCCCC1)CC3 [CBK292120] | 104%
Cc1noc(C)c1S(=O)(=O)Nc1nc(=O)[nH]cc1F [CBK067569] | 103%
Cc1nc(C)c(C(=O)N2CCC(c3cc4ncccc4[nH]3)CC2)s1 [CBK283396] | 101%
CCCN1CCN(c2ncnc3scc(C4COc5ccccc5O4)c23)CC1 (stereo not drawn) [CBK266590] | 102%
COCc1cccc(-c2ncc(OCCN3CCCC3=O)nc2NC(C)=O)c1 [CBK145239] | 94.8%
O=C(Cn1cnc2c(F)cc(Br)cc2c1=O)N1CCOC2CCCCC21 (stereo not drawn) [CBK305229] | 89.2%
Cc1ccc(-c2c[nH]c([C@@H]3COCCN3Cc3csnn3)n2)cc1 [CBK289302] | 91.4%
COCCN(Cc1cnn(C)c1)C(=O)Cc1coc2cc(C)c(Cl)cc12 [CBK307435] | 108%
Cc1cc(OC(=O)C2CCC(CNC(=O)OC(C)(C)C)CC2)c2c3c(c(=O)oc2c1)CCCC3 (stereo not drawn) [CBK083590] | 102%
O=S(=O)(Nc1ncc(Br)c2cccnc12)c1cccc(C(F)(F)F)c1 [CBK073884] | 112%
CC(=O)Nc1cccc(Oc2nccnc2-c2ccc(F)cc2)c1 [CBK106900] | 37.1%
c1ccc(CN2CCC(N3CCC(N4CCc5ccccc5C4)CC3)CC2)cc1 [CBK264730G] | 91%
FC(F)(F)c1ccc(CN2CCC(Oc3nccnc3OC3CCCCC3)CC2)cc1 [CBK082859T] | 92.1%

Compound | viability at 28.5 h, 10 µM
CCCCc1ccc(Nc2csc(N)n2)cc1 [CBK020594] | 82.5%
O=C(c1cnc[nH]1)N1CCn2nc(C(O)Cc3ccccc3)cc2C1 (stereo not drawn) [CBK307558] | 109%
O=C(CSc1nnc(C2CC2)o1)Nc1ccc(CN2CCOCC2)cc1 [CBK305015] | 86%
O=C(O)CSc1nc2ccc([N+](=O)[O-])cc2[nH]1 [CBK265192] | 86.9%
CC(O)CNc1nccnc1-c1cccc(O)c1 (stereo not drawn) [CBK037055] | 97.6%
Cn1cnnc1CCC(=O)NCC1CCN(c2ccccc2F)C1 (stereo not drawn) [CBK307587] | 76.5%
O=S(=O)(c1ccc(Cl)s1)N1CCN(c2ccccn2)CC1 [CBK270305] | 110%
COc1ccc(OCCNC(=O)c2ccccc2-n2cccc2)cc1 [CBK149592] | 95.6%
COc1ccc(CCC(=O)Nc2cc(N3CCNCC3)ncn2)cc1 [CBK004231T] | 92.1%
COc1ccc(C(=O)C2=C(O)C(=O)N(CCCN(C)C)C2c2ccncc2)cc1C (stereo not drawn) [CBK264871] | 102%
Cc1nc(N(C)C)ncc1C(=O)NCCSc1nnnn1C [CBK306673] | 93.1%
COc1c(C)[nH]cc(CN(C)CCC(=O)Nc2cccc(F)c2)c1=O [CBK304201] | 90.5%
CS(=O)(=O)c1ccc(-c2ccc(OCC3CCN(C(=O)c4cccc(C#N)c4)CC3)nc2)cc1 [CBK162283] | 93.3%
Cc1ccccc1-n1ncc2c(=O)n(Cc3ccccc3)cnc21 [CBK287690] | 96.9%
COc1cc(CO)cc(I)c1OCC(=O)Nc1ccccc1 [CBK265950] | 112%
C=CCn1c2ccccc2c2nnc(SCC(=O)N3c4ccccc4Sc4ccccc43)nc21 [CBK263237] | 106%
CC(C)N1CCC(CNC(=O)c2cccc(N3CCCC3=O)c2)CC1 [CBK282641] | 104%
Cn1ccnc1C(NC(=O)c1ccncc1)c1ccc(F)c(F)c1 (stereo not drawn) [CBK283808] | 104%
CN1CCC(C(=O)N2CCCc3ccccc32)CC1 [CBK200260] | 95%

same assay, conditions: human, hela cells, % viability, bulk resorufin, single well

Compound | viability at 28.5 h, 10 µM
CCN(CC)CCN/C=C1/C(=O)NC(=O)N(Cc2ccccc2)C1=O [CBK261624] | 88.9%
